Laboratory results published in patent US9447086B2, “6-amino acid heteroaryldihydropyrimidines for the treatment and prophylaxis of hepatitis B virus infection” (priority 2012, dated 2016).
pEC50: −log10 of the molar value. ≈ marks a conversion by molar mass, not a printed value.

How the values were obtained:
[1] = test system: HepDE19 cells; test: Cytotoxicity (CC50) in HepDE19 cells, CCK-8 cell viability; format: cell-based
Procedure, shortened: (§1)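 HBV-transfected HepG2-derived HepDE19 cells grown in DMEM-F12 with 10% FBS and G418. Viability read five days after treatment by CCK-8, 2 h at 37 °C, absorbance at 450 and 630 nm.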

[2] = test system: HBV; test: Selectivity index (CC50 value/EC50 value); format: cell-based, Hepatitis B virus
Procedure, shortened: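 Ratio of CC50 to EC50, measuring antiviral activity against HBV relative to cytotoxicity in vitro; higher values indicate greater separation between viral inhibition and cell death.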

[3] = Lyophilisation solubility assay (Lysa); format: physicochemical; conditions: phosphate buffer, pH 6.5, aqueous buffer, thermodynamic from solid
Procedure, shortened: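 Solubility in μg/mL is read by UV or HPLC-UV on filtrate, neat and diluted 1/10. Before filtration, the residue from evaporated 10 mM DMSO stock was taken up in pH 6.5 0.05 M phosphate buffer, then stirred 1 h, shaken 2 h and stood overnight, in duplicate.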

[4] = Metabolic stability study in human microsome; format: in vitro ADME
Procedure, shortened: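 Depletion of 1 μM compound followed by LC-MS/MS over 0–30 min (0, 3, 6, 9, 15, 30 min) after methanol quench. Incubations at 37 °C, pH 7.4 phosphate buffer, 0.5 mg/mL microsomal protein, with NADPH (1 mM) or a regenerating system as cofactor; controls lacked cofactor.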

[5] = test system: HBV; test: Anti-HBV activity in vitro in HepG2.2.15 cells (extracellular HBV DNA by qPCR); format: cell-based, Hepatitis B virus; conditions: Hepatitis B virus; HepG2.2.15 cells; in-house data; read-out: EC50
Procedure, shortened: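 Supernatant HBV DNA was measured by qPCR after viral DNA extraction. Samples came from 5-day cultures of HepG2.2.15 cells, an HBV-genome-transfected HepG2 line, exposed to half-log compound dilutions in medium containing 0.5% DMSO.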

[6] = Cytotoxicity (CC50) in HepDE19 cells, CCK-8 cell viability; format: cell-based; conditions: human, HepDE19 cells; read-out: CC50
Procedure, shortened: as §1

Structure (SMILES) | CC50 [1] [nM] | Selectivity index (CC50/EC50) [2] | solubility thermodynamic [3] [µg/mL] | Human Hepatic Clearance [4] [mL/min/kg] | pEC50 [5] | CC50 at 5 days [6] [nM]
CCOC(=O)C1=C(CN2CCOC[C@H]2C(=O)O)NC(c2nccs2)=N[C@H]1c1cccc(F)c1Br [Example 66, (S)-4-[(R)-6-(2-Bromo-3-fluoro-phenyl)-5-ethoxycarbonyl-2-thiazol-2-yl-3,6-dihydro-pyrimidin-4-ylmethyl]-morpholine-3-carboxylic acid] | 95000 | 135714 | > 669 | 1.64 | 9.15 | –
COC(=O)C1=C(CN2CCOC[C@H]2C(=O)O)NC(c2ncoc2C)=N[C@H]1c1ccc(F)cc1Cl [Example 68, (S)-4-[(R)-6-(2-Chloro-4-fluoro-phenyl)-5-methoxycarbonyl-2-(5-methyl-oxazol-4-yl)-3,6-dihydro-pyrimidin-4-ylmethyl]-morpholine-3-carboxylic acid] | > 100000 | >7407 | > 627 | 0.23 | 7.85 | –
CCOC(=O)C1=C(CN2CCOC[C@H]2C(=O)O)NC(c2nccs2)=N[C@H]1c1ccccc1Cl [Example 82, (S)-4-[(R)-6-(2-Chloro-phenyl)-5-ethoxycarbonyl-2-thiazol-2-yl-3,6-dihydro-pyrimidin-4-ylmethyl]-morpholine-3-carboxylic acid] | > 100000 | >7194 | > 618 | 0 | 7.85 | –
O=C(OCC(F)(F)F)C1=C(CN2CCOC[C@H]2C(=O)O)NC(c2nccs2)=N[C@H]1c1ccc(F)cc1Cl [Example 51, (S)-4-[(R)-6-(2-Chloro-4-fluoro-phenyl)-2-thiazol-2-yl-5-(2,2,2-trifluoro-ethoxycarbonyl)-3,6-dihydro-pyrimidin-4-ylmethyl]-morpholine-3-carboxylic acid] | 27000 | 2117 | > 695 | 0 | 7.89 | –
CCOC(=O)C1=C(CN2CCOC[C@H]2C(=O)O)NC(c2nccs2)=N[C@H]1c1ccc(F)c(F)c1C [Example 96, (S)-4-[(S)-6-(3,4-Difluoro-2-methyl-phenyl)-5-ethoxycarbonyl-2-thiazol-2-yl-3,6-dihydro-pyrimidin-4-ylmethyl]-morpholine-3-carboxylic acid] | 97000 | 161667 | > 628 | 4.8 | 9.22 | –
CCOC(=O)C1=C(CN2CCOC[C@H]2C(=O)O)NC(c2nccs2)=N[C@H]1c1ccc(F)c(F)c1 [Example 42, (S)-4-[(S)-6-(3,4-Difluoro-phenyl)-5-ethoxycarbonyl-2-thiazol-2-yl-3,6-dihydro-pyrimidin-4-ylmethyl]-morpholine-3-carboxylic acid] | – | >10000 | > 613 | 5.56 | 8.00 | > 100000
COC(=O)C1=C(CN2CCOC[C@H]2C(=O)O)NC(c2ncc(F)cc2F)=N[C@H]1c1ccc(F)cc1Cl [Example 6, (S)-4-[(R)-6-(2-Chloro-4-fluoro-phenyl)-2-(3,5-difluoro-pyridin-2-yl)-5-methoxycarbonyl-3,6-dihydro-pyrimidin-4-ylmethyl]-morpholine-3-carboxylic acid] | – | 3600 | > 100 | 6.28 | 8.12 | 27000
CCOC(=O)C1=C(CN2CCOC[C@H]2C(=O)O)NC(c2nccn2C)=N[C@H]1c1cccc(F)c1Cl [Example 97, (S)-4-[(R)-6-(2-Chloro-3-fluoro-phenyl)-5-ethoxycarbonyl-2-(1-methyl-1H-imidazol-2-yl)-3,6-dihydro-pyrimidin-4-ylmethyl]-morpholine-3-carboxylic acid] | – | 8800 | > 640 | 1.63 | 8.30 | 44000
COC(=O)C1=C(CN2CC(F)(F)C[C@H]2C(=O)O)NC(c2cc(F)cs2)=N[C@H]1c1ccc(F)cc1Cl [Example 12, (R)-6-((S)-2-Carboxy-4,4-difluoro-pyrrolidin-1-ylmethyl)-4-(2-chloro-4-fluoro-phenyl)-2-(4-fluoro-thiophen-2-yl)-1,4-dihydro-pyrimidine-5-carboxylic acid methyl ester] | – | >10753 | 488 (≈ 917 µM) | 5.55 | 8.03 | > 100000
COC(=O)C1=C(CN2CCO[C@H](C)[C@H]2C(=O)O)NC(c2nccs2)=N[C@H]1c1ccc(F)cc1Br [Example 106, (2R,3S)-4-[(R)-6-(2-Bromo-4-fluoro-phenyl)-5-methoxycarbonyl-2-thiazol-2-yl-3,6-dihydro-pyrimidin-4-ylmethyl]-2-methyl-morpholine-3-carboxylic acid] | – | >47619 | > 730 | 6.32 | 8.68 | > 100000
CCOC(=O)C1=C(CN2CC(F)(F)C[C@H]2C(=O)O)NC(c2nccs2)=N[C@H]1c1ccc(F)cc1F [Example 59, (R)-6-((S)-2-Carboxy-4,4-difluoro-pyrrolidin-1-ylmethyl)-4-(2,4-difluoro-phenyl)-2-thiazol-2-yl-1,4-dihydro-pyrimidine-5-carboxylic acid ethyl ester] | – | 3935 | > 630 | 3.5 | 7.89 | 52000
COC(=O)C1=C(CN2CCO[C@H](C(C)C)[C@H]2C(=O)O)NC(c2nccs2)=N[C@H]1c1ccc(F)cc1Cl [Example 120, (2R,3S)-4-[(R)-6-(2-Chloro-4-fluoro-phenyl)-5-methoxycarbonyl-2-thiazol-2-yl-3,6-dihydro-pyrimidin-4-ylmethyl]-2-isopropyl-morpholine-3-carboxylic acid] | 81000 | 16875 | – | 2.58 | 8.32 | –
CCOC(=O)C1=C(CN2CCOC[C@H]2C(=O)O)NC(c2nccn2C)=N[C@H]1c1ccc(F)cc1Cl [Example 35, (S)-4-[(R)-6-(2-Chloro-4-fluoro-phenyl)-5-ethoxycarbonyl-2-(1-methyl-1H-imidazol-2-yl)-3,6-dihydro-pyrimidin-4-ylmethyl]-morpholine-3-carboxylic acid] | – | 12987 | > 599 | 8.86 | 8.11 | > 100000
COC(=O)C1=C(CN2CCOC[C@]2(C)C(=O)O)NC(c2nccs2)=N[C@H]1c1ccc(F)c(F)c1Cl (single isomer, unassigned) [Example 79] | – | 16889 | > 660 | 2.18 | 8.35 | 76000
CCOC(=O)C1=C(CN2CC(F)(F)C[C@H]2C(=O)O)NC(c2nccs2)=N[C@H]1c1ccc(F)cc1Cl [Example 34, (R)-6-((S)-2-Carboxy-4,4-difluoro-pyrrolidin-1-ylmethyl)-4-(2-chloro-4-fluoro-phenyl)-2-thiazol-2-yl-1,4-dihydro-pyrimidine-5-carboxylic acid ethyl ester] | – | >10000 | 531 (≈ 1000 µM) | 7.46 | 8.00 | > 100000
CCOC(=O)C1=C(CN2CCOC[C@H]2C(=O)O)NC(c2nccs2)=N[C@H]1c1cc(F)c(F)c(F)c1 [Example 43, (S)-4-[(S)-5-Ethoxycarbonyl-2-thiazol-2-yl-6-(3,4,5-trifluoro-phenyl)-3,6-dihydro-pyrimidin-4-ylmethyl]-morpholine-3-carboxylic acid] | – | >5556 | > 606 | 1.2 | 7.74 | > 100000
CCOC(=O)C1=C(CN2CC(F)(F)C[C@H]2C(=O)O)NC(c2nccs2)=N[C@H]1c1ccc(Br)cc1 [Example 130, (2S)-1-[[(4S)-4-(4-Bromophenyl)-5-ethoxycarbonyl-2-(1,3-thiazol-2-yl)-1,4-dihydropyrimidin-6-yl]methyl]-4,4-difluoropyrrolidine-2-carboxylic acid] | – | 2833 | > 625 | 3.92 | 8.22 | 17000
CCOC(=O)C1=C(CN2CC(F)(F)CC[C@@H]2C(=O)O)NC(c2nccs2)=N[C@H]1c1ccc(F)cc1Br [Example 108, (R)-4-(2-Bromo-4-fluoro-phenyl)-6-((R)-2-carboxy-5,5-difluoro-piperidin-1-ylmethyl)-2-thiazol-2-yl-1,4-dihydro-pyrimidine-5-carboxylic acid ethyl ester] | – | 1784 | 410 (≈ 698 µM) | 4.88 | 7.74 | 33000
